Among the data in patent publication US12297187B2, “Compound having cyclic structure” (Daiichi Sankyo Company, Limited, priority 2017, dated 2025) are response vs control in vivo values, retold here.

The assay deals with IL-10. Put plainly: Measurement of IL-10 increase rate (LPS-induced inflammation in mice, serum IL-10 by ELISA). The note with it: Mus musculus, 2 h, oral 100 mg/kg in 0.5% methyl cellulose, LPS 0.4 mg/kg i.p. one hour later, serum taken one hour after LPS, % control ratio vs 0.5% methyl cellulose group, read-out: IL10 Increase Rate (%). The format is in vivo. The procedure: A test substance was suspended in a 0.5% (w/v) methyl cellulose and orally administered to mice at a dose of 100 mg/kg. One hour later, a lipopolysaccharide (LPS, Sigma-Aldrich, L2630 (trade name)) (0.4 mg/kg) was intraperitoneally administered to induce inflammation. One hour after administration of LPS, blood was taken from the vena cava under anesthesia with isoflurane, placed in a tube containing a serum separating agent, allowed to stand still at room temperature for 20-30 minutes and centrifuged at 4° C. at 12,000 rpm for 5 minutes to obtain the serum. Thereafter, the amount of the IL-10 in the serum was measured by using Mouse IL-10 Quantikine ELISA Kit (R&D systems, M1000B (trade name)) or Mouse IL-10 Immunoassay kit (PerkinElmer, AL502 (trade name)) in accordance with the protocol of the kit. The serum was diluted 10 times with the dilution solution contained in the kit and put in use. IL-10 increase rate (% control ratio) of the compound was calculated in accordance with the following expression: IL-10 increase rate (% control ratio) (IL10 amount in compound administration group)×100/(IL-10 amount in 0.5% (w/v) methyl cellulose administration group)
(In an ELISA, binding on a coated surface is turned into a signal by an enzyme label.)
On to `CN(C)C12CC(c3cn([C@H]4CC[C@H](c5nnc(COc6cccc(C(F)(F)F)c6)n5C)CC4)nn3)(C1)C2` [Example 12, N,N-Dimethyl-3-{1-[trans-4-(4-methyl-5-{[3-(trifluoromethyl)phenoxy]methyl}-4H-1,2,4-triazol-3-yl)cyclohexyl]-1H-1,2,3-triazol-4-yl}bicyclo[1.1.1]pentan-1-amine], for which the response vs control in vivo at 100 mg/kg stood at 177%. Turning to `Cn1c(COc2cc(C(F)(F)F)ccn2)nnc1[C@H]1CC[C@H](c2cnn([C@H]3C[C@H](O)[C@@H](N4CCC4)C3)c2)CC1` (racemic) [Example 28, (1SR,2SR,4RS)-2-(Azetidin-1-yl)-4-(4-{trans-4-[4-methyl-5-({[4-(trifluoromethyl)pyridin-2-yl]oxy}methyl)-4H-1,2,4-triazol-3-yl]cyclohexyl}-1H-pyrazol-1-yl)cyclopentanol], the response vs control in vivo at 100 mg/kg is 113%.

Take `CN(C)C12CCC(c3cn([C@H]4CC[C@H](c5nnc(COc6cccc(C(F)(F)F)c6)n5C)CC4)nn3)(CC1)OC2` [Example 9, N,N-Dimethyl-1-{1-[trans-4-(4-methyl-5-{[3-(trifluoromethyl)phenoxy]methyl}-4H-1,2,4-triazol-3-yl)cyclohexyl]-1H-1,2,3-triazol-4-yl}-2-oxabicyclo[2.2.2]octan-4-amine]: the response vs control in vivo at 100 mg/kg stood at 182%. Take `CN(C)C12CCC(c3cn([C@H]4CC[C@H](c5nnc(COc6cccc(C(F)(F)F)c6)n5C)CC4)nn3)(CC1)CC2` [Example 11, N,N-Dimethyl-4-{1-[trans-4-(4-methyl-5-{[3-(trifluoromethyl)phenoxy]methyl}-4H-1,2,4-triazol-3-yl)cyclohexyl]-1H-1,2,3-triazol-4-yl}bicyclo[2.2.2]octan-1-amine]: the response vs control in vivo at 100 mg/kg is 180%. As for `Cn1c(COc2cc(C(F)(F)F)ccn2)nnc1[C@H]1CC[C@H](c2cn([C@H]3CC[C@H](N4CC(CF)C4)CC3)nn2)CC1` [Example 20, 2-({5-[trans-4-(1-{trans-4-[3-(Fluoromethyl)azetidin-1-yl]cyclohexyl}-1H-1,2,3-triazol-4-yl)cyclohexyl]-4-methyl-4H-1,2,4-triazol-3-yl}methoxy)-4-(trifluoromethyl)pyridine], the response vs control in vivo at 100 mg/kg is 176%.

Take `CC(C)c1cccc(OCc2nnc([C@@H]3CC[C@@H](n4cc(C5(F)CCN(C)CC5)nn4)CO3)n2C)c1` [Example 13, 4-Fluoro-1-methyl-4-{1-[(3R,6S)-6-(4-methyl-5-{[3-(propan-2-yl)phenoxy]methyl}-4H-1,2,4-triazol-3-yl)tetrahydro-2H-pyran-3-yl]-1H-1,2,3-triazol-4-yl}piperidine]: the response vs control in vivo at 100 mg/kg worked out at 156%. For `Cn1c(CCn2cccc(C(F)(F)F)c2=O)nnc1[C@H]1CC[C@H](c2cnn([C@H]3CC[C@H](N4CC5(CCOC5)C4)CC3)c2)CC1` [Example 33, 1-{2-[4-Methyl-5-(trans-4-{1-[trans-4-(6-oxa-2-azaspiro[3.4]oct-2-yl)cyclohexyl]-1H-pyrazol-4-yl}cyclohexyl)-4H-1,2,4-triazol-3-yl]ethyl}-3-(trifluoromethyl)pyridin-2(1H)-one], the response vs control in vivo at 100 mg/kg was 144%. With `Cn1c(COc2cc(C(F)(F)F)ccn2)nnc1[C@H]1CC[C@H](c2cnn([C@H]3CC[C@H](N4CCOCC4)CC3)c2)CC1` [Example 23, 4-[trans-4-(4-{trans-4-[4-Methyl-5-({[4-(trifluoromethyl)pyridin-2-yl]oxy}methyl)-4H-1,2,4-triazol-3-yl]cyclohexyl}-1H-pyrazol-1-yl)cyclohexyl]morpholine], the response vs control in vivo at 100 mg/kg was 232%. On to `Cn1c(COc2cc(C(F)(F)F)ccn2)nnc1[C@H]1CC[C@H](c2cnn([C@H]3CC[C@H](N4CC5(CCOC5)C4)CC3)c2)CC1` [Example 27, 2-[trans-4-(4-{trans-4-[4-Methyl-5-({[4-(trifluoromethyl)pyridin-2-yl]oxy}methyl)-4H-1,2,4-triazol-3-yl]cyclohexyl}-1H-pyrazol-1-yl)cyclohexyl]-6-oxa-2-azaspiro[3.4]octane], for which the response vs control in vivo at 100 mg/kg was determined as 255%. `Cn1c(COc2cc(C(F)(F)F)ccn2)nnc1[C@H]1CC[C@H](c2cnn([C@H]3CC[C@H](N4CC5(CCO5)C4)CC3)c2)CC1` [Example 25, 6-[trans-4-(4-{trans-4-[4-Methyl-5-({[4-(trifluoromethyl)pyridin-2-yl]oxy}methyl)-4H-1,2,4-triazol-3-yl]cyclohexyl}-1H-pyrazol-1-yl)cyclohexyl]-1-oxa-6-azaspiro[3.3]heptane]: the response vs control in vivo at 100 mg/kg amounted to 216%. Consider `CN1CCC(F)(c2cn([C@H]3CC[C@H](c4nnc5n4CCCC5Oc4cccc(C(F)(F)F)c4)CC3)nn2)CC1` (stereo partly drawn) [Example 15, 3-{trans-4-[4-(4-Fluoro-1-methylpiperidin-4-yl)-1H-1,2,3-triazol-1-yl]cyclohexyl}-8-[3-(trifluoromethyl)phenoxy]-5,6,7,8-tetrahydro[1,2,4]triazolo[4,3-a]pyridine], for which the response vs control in vivo at 100 mg/kg was determined as 227%. As to `Cn1c(COc2cccc(C(F)(F)F)c2)nnc1[C@H]1CC[C@H](c2cn([C@@H]3CC[C@@H](CN4CCC4)OC3)nn2)CC1` [Example 19, 1,5-Anhydro-6-azetidin-1-yl-2,3,4,6-tetradeoxy-2-{4-[trans-4-(4-methyl-5-{[3-(trifluoromethyl)phenoxy]methyl}-4H-1,2,4-triazol-3-yl)cyclohexyl]-1H-1,2,3-triazol-1-yl}-D-erythro-hexitol], the response vs control in vivo at 100 mg/kg is 227%. Take `COC(=O)c1cccc(OCc2nnc([C@H]3CC[C@H](c4cnn([C@H]5CC[C@H](N6CC7(COC7)C6)CC5)c4)CC3)n2C)c1` [Example 31, Methyl 3-{[4-methyl-5-(trans-4-{1-[trans-4-(2-oxa-6-azaspiro[3.3]hept-6-yl)cyclohexyl]-1H-pyrazol-4-yl}cyclohexyl)-4H-1,2,4-triazol-3-yl]methoxy}benzoate]: the response vs control in vivo at 100 mg/kg worked out at 222%. Take `Cn1c(COc2cc(C(F)(F)F)ccn2)nnc1[C@H]1CC[C@H](c2cnn([C@H]3CC[C@H](N4CCC5(COC5)C4)CC3)c2)CC1` [Example 26, 6-[trans-4-(4-{trans-4-[4-Methyl-5-({[4-(trifluoromethyl)pyridin-2-yl]oxy}methyl)-4H-1,2,4-triazol-3-yl]cyclohexyl}-1H-pyrazol-1-yl)cyclohexyl]-2-oxa-6-azaspiro[3.4]octane]: the response vs control in vivo at 100 mg/kg was 231%.
